“Also recorded” adds a separate entry of the source.
Assays:
MCF-7 cells [1] = assay: Cell morphology after exposure to growth factor; type: cell-based, human; conditions: MCF-7 / MCF-7M, 6-14 days in growth factor
Description: FIG. 4 is a photographic representation showing morphology of growth factor stimulated MCF-7M cells. Following 1 week in suspension culture containing the various growth factors, MCF-7M cells were cytospun onto slides and subsequently stained with Giemsa.
FIG. 11 is a photographic representation showing cell morphology after exposure to OSM. MCF-7 cells from control cultures and appears of cells after 7 days in OSM. A) Control cells, 10× magnification. B) OSM treated cells, 10× magnification. C) OSM treated cells, 40× magnification. D) OSM treated cells, 100× magnification.
FIG. 15 is a photographic representation showing cell morphology after exposure to OSM. MCF-7 cells from control cultures (Panel A) and appearance of cells after culture for 14 days in OSM (10 ng/ml) (Panel B). MDA-MB-231 cells from control cultures (Panel C) and appearance of cells after culture for 7 days in OSM (Panel D).

MCF-7 cell line = assay: Receptor binding of radioiodinated ligand to MCF-7 cells, Scatchard analysis; parameters: species or system human; conditions: for Kd: MCF-7, Scatchard analysis, read-out: dissociation constant; for specific binding(cpm)/10^6 cells: MCF-7M, 125I-ligand, room temperature 60 min
Protocol: FIG. 20 is a graphical representation showing Scatchard analyses of the saturation isotherms of LIF and OSM binding to breast cancer cell lines. Cells were incubated with various concentrations of labelled or unlabelled ligand in the presence or absence of a 10-100 fold excess of unlabelled ligand. After 18 hr on ice, bound and free ligand were separated by centrifugation through bovine calf serum. Bound and free ^125I-ligand was quantitated in a γ-counter and the data was depicted as a Scatchard transformation. Data was normalised for cell number and is shown as binding to 10^6 cells. A) Saturation isotherm of LIF binding to the MCF-7 cell line. […] B) Saturation isotherm of OSM binding to the MDA-MB-231 cell line.
Receptor binding assays were performed using radioiodinated LIF (^125I-LIF) and OSM (^125I-OSM). The radioiodination of LIF and OSM and binding assays were essentially performed as previously described (Hilton et al., 1991; Hilton and Nicola, 1992). Briefly, 50 μl aliquots containing 1×10^7 cells, suspended in RPMI-1640 medium containing 10% (v/v) BCS, were placed in Falcon tubes with 40 μl of the respective radioiodinated ligand at 1×10^5 cpm per 40 μl, with or without greater than a 40-fold excess of unlabelled ligand. Incubation was carried out at room temperature for 60 min and cells were resuspended and layered over 180 μl of (v/v) BCS. Cell associated and free radioiodinated ligand were separated by centrifugation. The pellet and supernatant were subsequently counted in a γ-counter. Specific binding was estimated by subtraction of non specific binding from binding with ^125I-ligand (total binding). Number of cell surface receptors and dissociation constant were calculated by Scatchard analysis.

MCF-7 cells [2] = assay: Clonogenic assay in agar after monolayer culture; type: cell-based, human; conditions: MCF-7, 7 days monolayer then 14 days agar
Protocol: FIG. 3 is a graphical representation showing clonogenicity of MCF-7M cells. Following suspension culture MCF-7M cell viability was measured by agar culture. Cells were plated in agar with the indicated concentrations of each of the growth factors. After 14 days culture colonies of cells were counted. Cell numbers reported here are the results of 3 experiments, each performed in triplicate, and are expressed according to the number of cells that went into suspension culture.
FIG. 17 is a graphical representation showing clonogenicity of MCF-7 cells after 1 week in suspension culture. Following suspension culture clonogenicity of MCF-7 cells was assayed in agar culture. Cells were plated in agar with the indicated growth factor and maintained at 37° C0 in a humidified incubator with 5% CO2 in air. After 14 days colonies of cells were counted. Results are from 9 experiments using IL-6, LIF and OSM, and 5 experiments using CNTF and IL-11. Each experiment was performed in triplicate, and colony numbers are expressed as a percentage of untreated controls.
Clonogenic potential of cells following monolayer culture was assessed in a semi-solid culture medium. Cells were cultured in triplicate in 35 mm Petri dishes containing 1 ml Iscove's modified Dulbecco's medium (IMDM) supplemented with 25% (v/v) (v/v) BCS, 0.3% (w/v) agar with final concentration of growth factor as outlined above, and with 200 cells per ml for control cultures Cultures were maintained at 37° C. in a humidified incubator with 5% (v/v) CO2 in air. After 14 days, colonies were enumerated using a dissecting microscope. A colony was defined as a clone of greater than 40 cells. All cultures were performed in triplicate.

T-47D cells = assay: Cell morphology after exposure to OSM; type: cell-based, human; conditions: T-47D cultured with OSM
Description: (§1) The action of IL-6, LIF, OSM CNTF and IL-11 was examined on 4 breast cancer cell lines grown in monolayer culture. Striking changes in the morphology of cells were observed. FIG. 15 compares morphology of untreated cells with cells exposed to OSM. […] This was associated with the appearance of decreased intercellular adhesion or cellular contraction. These changes were quite marked by day 14.

BT-549 = assay: Cell morphology after exposure to OSM; type: cell-based, human; conditions: BT-549 exposed to OSM
Description: as §1

Row | Substance | cell morphology (in words) (MCF-7 cells [1]) | Kd (MCF-7 cell line) | specific binding(cpm)/10^6 cells (MCF-7 cell line) | effect on colony formation / clonogenic potential (in words) (MCF-7 cells [2]) | cell morphology (in words) (T-47D cells) | cell morphology (in words) (BT-549)
1 | Leukemia Inhibitory Factor [LIF] | appeared larger than the control cells | 0.0146 nM | 350 +/− 100 cpm | significant reduction of colony formation |  | 
2 | oncostatin M [OSM] | more abundant cytoplasm and vacuolation; also recorded: more fibroblastic phenotype; also recorded: larger and more vacuolated than control cells | 2 nM | 1250 +/− 90 cpm | significant reduction of colony formation | more rounded in appearance | Transformation to a fibroblastic phenotype
